Test results published in patent US20250144067A1, “PERSONALIZED STARVATION THERAPY FOR CANCER” (Faeth Therapeutics, Inc., priority 2021, published 2025).
Structures can show the parent of a compound that is named as a salt.

Legend:
[1] = system: NCI-H292 lung cancer cells; test: FDA drug screening, complete media vs cholesterol-free media with simvastatin (TABLE 2); format: cell-based, human; settings: for Cholesterol-free media + simvastatin (0.04 μM) / Complete Media: NCI-H292 cells
[2] = system: NCI-H292 lung cancer cells; test: FDA drug screening, complete media vs cholesterol-free media without statin (TABLE 1); format: cell-based, human
[3] = drug in cholesterol-free media with simvastatin 0.04 μM
[4] = complete media vs cholesterol-free media + simvastatin (0.04 μM), >0 enhanced anti-cancer activity, about 0 neutral, <0 antagonist
[5] = NCI-H292 cells, cholesterol-free media without statin, FDA drug library screen
[6] = NCI-H292 cells, complete media, FDA drug library screen
[7] = complete vs cholesterol-free media, >0 enhanced anti-cancer activity, about 0 neutral, <0 antagonist
[8] = cholesterol-free media with simvastatin 0.04 μM, cell growth value in FDA drug screen
[9] = complete media, cell growth value in FDA drug screen
[10] = complete media minus cholesterol-free media + simvastatin, >0 enhanced anti-cancer activity, about 0 neutral, <0 antagonist
[11] = Complete minus Cholesterol-free, greater than 0 enhanced anti-cancer activity, about 0 neutral, below 0 antagonist
[12] = NCI-H292 cells, FDA drug library screen, cholesterol-free media without statin
[13] = NCI-H292 cells, FDA drug library screen, complete media
[14] = cholesterol-free media with simvastatin 0.04 μM, FDA drug library screen (TABLE 2)
[15] = complete media, FDA drug library screen (TABLE 2)
[16] = complete media minus cholesterol-free media + simvastatin (0.04 μM), >0 enhanced anti-cancer activity, about 0 neutral, <0 antagonist
[17] = Complete minus Cholesterol-free, greater than 0 enhanced anti-cancer activity, about 0 neutral, below 0 antagonists
[18] = NCI-H292 cells in cholesterol-free media without statin
[19] = NCI-H292 cells in complete media
[20] = FDA drug library screen, cholesterol-free media with simvastatin 0.04 μM
[21] = FDA drug library screen, complete media
[22] = Complete minus Cholesterol-free, >0 enhanced anti-cancer activity, about 0 neutral, <0 antagonist
[23] = FDA library drug in cholesterol-free media with simvastatin 0.04 μM
[24] = FDA library drug in complete media
[25] = NCI-H292 cells, cholesterol-free media without statin
[26] = complete vs cholesterol-free media, greater than 0 enhanced anti-cancer activity, about 0 neutral, below 0 antagonists

O=C(Nc1cnn2ccc(N3CCC[C@@H]3c3cc(F)ccc3F)nc12)N1CC[C@H](O)C1 [Larotrectinib sulfate]
Cholesterol-free media + simvastatin (0.04 μM) [1, 3]: 1.922
Complete Media ([1]; drug in complete media): 1.699
Difference [1, 4]: −0.22
Cholesterol-free [2, 5]: 1.525
Complete [2, 6]: 1.739
Difference [2, 7]: 0.21

O=C(Nc1cnn2ccc(N3CCC[C@@H]3c3cc(F)ccc3F)nc12)N1CC[C@H](O)C1 [Larotrectinib]
Cholesterol-free media + simvastatin (0.04 μM) [1, 8]: 1.092
Complete Media [1, 9]: 1.143
Difference [1, 10]: 0.05
Difference [2, 11]: −0.08
Cholesterol-free [2, 12]: 1.012
Complete [2, 13]: 0.9305

CC(C)OC(=O)CCC/C=C\C[C@@H]1[C@@H](CC[C@@H](O)CCc2ccccc2)[C@H](O)C[C@@H]1O [Latanoprost]
Cholesterol-free media + simvastatin (0.04 μM) [1, 14]: 1.031
Complete Media [1, 15]: 0.9769
Difference [1, 16]: −0.05
Difference [2, 17]: −0.48
Cholesterol-free [2, 18]: 1.483
Complete [2, 19]: 1.005

O=C(CCC/C=C\C[C@@H]1[C@@H](CC[C@@H](O)CCc2ccccc2)[C@H](O)C[C@@H]1O)OCCCCO[N+](=O)[O-] [Latanoprostene bunod]
Cholesterol-free media + simvastatin (0.04 μM) [1, 20]: 1.139
Complete Media [1, 21]: 1.004
Difference [1, 4]: −0.14
Cholesterol-free [2, 5]: 0.8229
Complete [2, 6]: 1.464
Difference [2, 7]: 0.64

Cc1ccc2c(c1)c1c(n2CCc2ccc(C)nc2)CCN(C)C1 [Latrepirdine (dihydrochloride)]
Cholesterol-free media + simvastatin (0.04 μM) [1, 8]: 1.036
Complete Media [1, 9]: 1.07
Difference [1, 10]: 0.03
Difference [2, 17]: −0.58
Cholesterol-free [2, 18]: 1.66
Complete [2, 19]: 1.083

CCCCCCCCCCCCN1CCCCCC1=O [Laurocapram]
Cholesterol-free media + simvastatin (0.04 μM) [1, 20]: 1.036
Complete Media [1, 21]: 0.883
Difference [1, 4]: −0.15
Difference [2, 22]: −0.06
Complete [2, 6]: 0.887

COC(=O)N[C@H](C(=O)N1CC2(CC2)C[C@H]1c1nc(-c2ccc3c(c2)C(F)(F)c2cc(-c4ccc5[nH]c([C@@H]6[C@H]7CC[C@H](C7)N6C(=O)[C@@H](NC(=O)OC)C(C)C)nc5c4)ccc2-3)c[nH]1)C(C)C [Ledipasvir (acetone)]
Cholesterol-free media + simvastatin (0.04 μM) [1, 23]: 1.383
Complete Media [1, 24]: 0.9707
Difference [1, 4]: −0.41
Difference [2, 11]: −0.13
Cholesterol-free [2, 12]: 0.5672
Complete [2, 13]: 0.4332

COC(=O)N[C@H](C(=O)N1CC2(CC2)C[C@H]1c1nc(-c2ccc3c(c2)C(F)(F)c2cc(-c4ccc5[nH]c([C@@H]6[C@H]7CC[C@H](C7)N6C(=O)[C@@H](NC(=O)OC)C(C)C)nc5c4)ccc2-3)c[nH]1)C(C)C [Ledipasvir]
Cholesterol-free media + simvastatin (0.04 μM) [1, 23]: 1.189
Complete Media [1, 24]: 0.6926
Difference [1, 4]: −0.50
Difference [2, 11]: −0.17
Cholesterol-free [2, 12]: 0.5821
Complete [2, 13]: 0.4142

Cc1oncc1C(=O)Nc1ccc(C(F)(F)F)cc1 [Leflunomide]
Cholesterol-free media + simvastatin (0.04 μM) [1, 14]: 0.9978
Complete Media [1, 15]: 0.949
Difference [1, 16]: −0.05
Difference [2, 11]: −0.16
Cholesterol-free [2, 12]: 0.8738
Complete [2, 13]: 0.714

Cc1ncc(OC[C@@]2(c3cccc(F)c3)C[C@H]2C(=O)Nc2ccc(F)cn2)c(C)n1 [Lemborexant]
Cholesterol-free media + simvastatin (0.04 μM) [1, 20]: 1.185
Complete Media [1, 21]: 1.038
Difference ([1]; complete media vs cholesterol-free media + simvastatin (0.04 μM), […]): −0.15
Cholesterol-free [2, 25]: 1.55
Complete ([2]; NCI-H292 cells, complete media): 1.207
Difference ([2]; complete vs cholesterol-free media, […]): −0.34

Nc1cccc2c1CN(C1CCC(=O)NC1=O)C2=O (centres unmarked) [Lenalidomide (hemihydrate)]
Cholesterol-free media + simvastatin (0.04 μM) [1, 23]: 1.432
Complete Media [1, 24]: 1.135
Difference [1, 4]: −0.30
Difference [2, 22]: −0.19
Cholesterol-free [2, 25]: 1.181
Complete ([2]; NCI-H292 cells, complete media): 0.9861

Nc1cccc2c1CN(C1CCC(=O)NC1=O)C2=O (centres unmarked) [Lenalidomide]
Cholesterol-free media + simvastatin (0.04 μM) [1, 14]: 1.008
Complete Media [1, 15]: 0.9958
Difference [1, 16]: −0.01
Difference [2, 11]: −0.16
Cholesterol-free [2, 12]: 1.032
Complete [2, 13]: 0.8739

Cc1oc(=O)oc1COC(=O)[C@@H]1N2C(=O)[C@@H](NC(=O)[C@H](N)c3ccccc3)[C@H]2SC1(C)C [Lenampicillin (hydrochloride)]
Cholesterol-free media + simvastatin (0.04 μM) [1, 20]: 1.05
Complete Media [1, 21]: 0.9118
Difference [1, 4]: −0.14
Difference [2, 11]: −0.08
Cholesterol-free [2, 12]: 1.101
Complete [2, 13]: 1.02

COc1cc2nccc(Oc3ccc(NC(=O)NC4CC4)c(Cl)c3)c2cc1C(N)=O [Lenvatinib]
Cholesterol-free media + simvastatin (0.04 μM) [1, 3]: 1.178
Complete Media ([1]; drug in complete media): 1.01
Difference [1, 4]: −0.17
Difference [2, 11]: −0.11
Cholesterol-free [2, 12]: 1.182
Complete [2, 13]: 1.077

COC(=O)C1=C(C)NC(C)=C(C(=O)OC(C)(C)CN(C)CCC(c2ccccc2)c2ccccc2)C1c1cccc([N+](=O)[O-])c1 (centres unmarked) [Lercanidipine (hydrochloride)]
Cholesterol-free media + simvastatin (0.04 μM) [1, 8]: 0.8086
Complete Media [1, 9]: 0.8565
Difference [1, 10]: 0.05
Difference [2, 11]: −0.18
Cholesterol-free [2, 12]: 0.8895
Complete [2, 13]: 0.7061

O=C(O)CSc1nnc(Br)n1-c1ccc(C2CC2)c2ccccc12 [Lesinurad (sodium)]
Cholesterol-free media + simvastatin (0.04 μM) [1, 20]: 0.8519
Complete Media [1, 21]: 0.7365
Difference [1, 4]: −0.12
Cholesterol-free [2, 5]: 0.8857
Complete [2, 6]: 1.263
Difference [2, 7]: 0.38

O=C(O)CSc1nnc(Br)n1-c1ccc(C2CC2)c2ccccc12 [Lesinurad]
Cholesterol-free media + simvastatin (0.04 μM) [1, 8]: 0.9083
Complete Media [1, 9]: 0.9388
Difference [1, 10]: 0.03
Difference [2, 11]: −0.12
Cholesterol-free [2, 12]: 1.092
Complete [2, 13]: 0.9716

COc1cccc(N2CCN(C3=Nc4c(F)cccc4[C@H](CC(=O)O)N3c3cc(C(F)(F)F)ccc3OC)CC2)c1 [Letermovir]
Cholesterol-free media + simvastatin (0.04 μM) [1, 14]: 1.527
Complete Media [1, 15]: 1.457
Difference [1, 16]: −0.07
Cholesterol-free [2, 25]: 1.5
Complete ([2]; NCI-H292 cells, complete media): 1.08
Difference [2, 26]: −0.42

N#Cc1ccc(C(c2ccc(C#N)cc2)n2cncn2)cc1 [Letrozole]
Cholesterol-free media + simvastatin (0.04 μM) [1, 23]: 1.67
Complete Media [1, 24]: 1.21
Difference [1, 4]: −0.46
Cholesterol-free [2, 25]: 1.334
Complete ([2]; NCI-H292 cells, complete media): 1.012
Difference [2, 26]: −0.32

c1ccc([C@H]2CN3CCSC3=N2)cc1 [Levamisole (hydrochloride)]
Cholesterol-free media + simvastatin (0.04 μM) [1, 23]: 1.301
Complete Media [1, 24]: 0.9046
Difference [1, 4]: −0.40
Cholesterol-free [2, 5]: 1.001
Complete [2, 6]: 1.665
Difference [2, 7]: 0.66

CC[C@@H](C(N)=O)N1CCCC1=O [Levetiracetam]
Cholesterol-free media + simvastatin (0.04 μM) [1, 20]: 1.002
Complete Media [1, 21]: 0.917
Difference [1, 4]: −0.09
Difference [2, 22]: −0.22
Cholesterol-free [2, 25]: 1.098
Complete ([2]; NCI-H292 cells, complete media): 0.8825

CC(C)NC[C@H](O)COc1ccc(CCOCC2CC2)cc1 [Levobetaxolol (hydrochloride)]
Cholesterol-free media + simvastatin (0.04 μM) [1, 14]: 1.004
Complete Media [1, 15]: 0.9581
Difference [1, 16]: −0.05
Difference [2, 17]: −0.54
Cholesterol-free [2, 18]: 1.517
Complete [2, 19]: 0.977

CC(C)(C)NC[C@H](O)COc1cccc2c1CCCC2=O [Levobunolol (hydrochloride)]
Cholesterol-free media + simvastatin (0.04 μM) [1, 14]: 0.9864
Complete Media [1, 15]: 0.921
Difference [1, 16]: −0.07
Cholesterol-free [2, 5]: 0.4904
Complete [2, 6]: 1.134
Difference [2, 7]: 0.64

CCCCN1CCCC[C@H]1C(=O)Nc1c(C)cccc1C [Levobupivacaine (hydrochloride)]
Cholesterol-free media + simvastatin (0.04 μM) [1, 8]: 0.871
Complete Media [1, 9]: 0.9154
Difference [1, 10]: 0.04
Cholesterol-free [2, 25]: 1.298
Complete ([2]; NCI-H292 cells, complete media): 0.9683
Difference [2, 26]: −0.33

CCC(=O)O[C@H](CC(=O)O)C[N+](C)(C)C [Levocarnitine propionate (hydrochloride)]
Cholesterol-free media + simvastatin (0.04 μM) [1, 14]: 1.106
Complete Media [1, 15]: 1.114
Difference [1, 16]: 0.01
Difference [2, 22]: −0.30
Cholesterol-free [2, 25]: 1.256
Complete ([2]; NCI-H292 cells, complete media): 0.9514

O=C(O)COCCN1CCN([C@H](c2ccccc2)c2ccc(Cl)cc2)CC1 [Levocetirizine (dihydrochloride)]
Cholesterol-free media + simvastatin (0.04 μM) [1, 3]: 1.115
Complete Media ([1]; drug in complete media): 0.8515
Difference [1, 4]: −0.26
Difference [2, 22]: 0.02
Cholesterol-free [2, 5]: 0.8691
Complete [2, 6]: 0.8901

OC[C@@H](O)CN1CCN(c2ccccc2)CC1 [Levodropropizine]
Cholesterol-free media + simvastatin (0.04 μM) [1, 20]: 1.096
Complete Media [1, 21]: 0.9475
Difference [1, 4]: −0.15
Difference [2, 11]: −0.15
Cholesterol-free [2, 12]: 0.946
Complete [2, 13]: 0.7999
